Source: US9468670B2, “Melatonin-based treatment and diagnosis of bile duct disease” (Texas A&M University System, priority 2011, dated 2016)

How the values were obtained:
[1] = Liver weight, body weight and liver to body weight ratio in normal and BDL rats; format: in vivo, rat; settings: tap water containing melatonin (20 mg/L) for 1 week
Description: Male 344 Fischer rats (150-175 g) were purchased from Charles River (Wilmington, Mass.) and kept in a temperature-controlled environment (22° C.) with 12:12 hr light/dark cycles. Animals were fed ad libitum and had free access to food and drinking water. […] Before each surgical procedure, animals were anesthetized with sodium pentobarbital (50 mg/kg BW, IP). All animal experiments were performed in accordance with a protocol approved by the Scott and White and Texas A&M Health Science Center Institutional Animal Care and Use Committee and conform to the Guide for the Care and Use of Laboratory Animals published by the US National Institutes of Health (NIH Publication No. 85-23, revised 1996). In all animals, wet liver weight, body weight, wet liver weight to body weight ratio, and an index of liver cell growth including cholangiocytes were measured ([…] et al., 1988).

[2] = Melatonin serum levels by ELISA in normal and BDL rats; format: in vivo; settings: male, Fischer 344, rat, oral, 20 mg/L in drinking water, tap water containing melatonin (20 mg/L) for 1 week
Description: Male 344 Fischer rats (150-175 g) were purchased from Charles River (Wilmington, Mass.) and kept in a temperature-controlled environment (22° C.) with 12:12 hr light/dark cycles. Animals were fed ad libitum and had free access to food and drinking water. The studies were performed in normal rats, and in rats that immediately after bile duct ligation (BDL, for collection of serum, liver tissues and cells) (Alpini et al., 1988) or bile duct incannulation (BDI, for bile collection) (Alpini et al., 1988) had ad libitum access to tap water or tap water containing melatonin (20 mg/L in drinking water that corresponds to approximately an intake of melatonin of 2 mg/g BW per day per rat) (Anisimov et al., 2003) for 1 week. Before each surgical procedure, animals were anesthetized with sodium pentobarbital (50 mg/kg BW, IP).
Melatonin serum levels were measured by commercially available ELISA kits according to the instructions provided by the vendor (Genway, San Diego, Calif.).

large cholangiocytes [3] = experiment: Bile duct mass, PCNA-positive cholangiocytes and apoptosis (TUNEL) in liver sections; format: in vivo, rat
Description: Male 344 Fischer rats (150-175 g) were purchased from Charles River (Wilmington, Mass.) and kept in a temperature-controlled environment (22° C.) with 12:12 hr light/dark cycles. Animals were fed ad libitum and had free access to food and drinking water. […] Before each surgical procedure, animals were anesthetized with sodium pentobarbital (50 mg/kg BW, IP). All animal experiments were performed in accordance with a protocol approved by the Scott and White and Texas A&M Health Science Center Institutional Animal Care and Use Committee and conform to the Guide for the Care and Use of Laboratory Animals published by the US National Institutes of Health (NIH Publication No. 85-23, revised 1996). In all animals, wet liver weight, body weight, wet liver weight to body weight ratio, and an index of liver cell growth including cholangiocytes were measured ([…] et al., 1988). The following was also evaluated in paraffin-embedded liver sections ([…]): (i) lobular necrosis; (ii) the intrahepatic bile duct mass (IBDM) of large (>[…]) ([…] et al., 1997; Glaser et al., 2009) cholangiocytes, the only biliary cell types proliferating following […] et al., 1998; Glaser et al., 2009) and (iii) the percentage of cholangiocyte apoptosis by semiquantitative terminal deoxynucleotidyltransferase biotin-dUTP nick-end labeling (TUNEL) kit (Apoptag; Chemicon International, Inc.) (Glaser et al., 2010). Lobular necrosis was measured in liver sections stained for hematoxylin and eosin (Glaser et al., 2010). […] The IBDM was measured as area occupied by CK-19 positive-bile duct/total area×100 (Glaser et al., 2010). It was also evaluated by H&E of sections if melatonin administration induces the damage of kidney, heart, stomach, spleen and small and large intestine of normal and BDL rats. The sections from the selected were evaluated in a blinded-fashion by two board-certified pathologists by a BX-51 light microscope (Olympus, Tokyo, Japan) equipped with a camera.

large cholangiocytes [4] = experiment: Secretin-stimulated cAMP levels (RIA) in purified large cholangiocytes from treated BDL rats; format: in vivo, rat; settings: cholangiocytes from BDL rats treated with melatonin for 1 week; secretin 100 nM, 5 minutes
Description: The effect of secretin on cAMP levels was evaluated in purified large cholangiocytes and bile and bicarbonate secretion was evaluated in bile fistula rats, two functional indices of cholangiocyte hyperplasia (Alpini et al., 1998; Alpini et al., 1988; LeSage et al., 1999). Following purification, large cholangiocytes (1×10^5 cells) were incubated for 1 hour at 37° C. (Ishii et al., 1989) before stimulation with 0.2% bovine serum albumin (BSA) or secretin (100 nM) for 5 minutes at room temperature (Kato et al., 1992; LeSage et al., 1999; LeSage et al., 2004) before evaluation of cAMP levels by RIA (Alpini et al., 1998; Kato et al., 1992; LeSage et al., 1999; LeSage et al., 2004). For the studies of biliary physiology, after anesthesia, rats were surgically prepared for bile collection as described by us (Alpini et al., 1988). When steady-state bile flow was reached (60-70 minutes from the intravenous infusion of Krebs-Ringer-Henseleit solution, KRH), the animals were infused with secretin (100 nM) (LeSage et al., 1999; LeSage et al., 2004) for 30 minutes followed by IV infusion of KRH for 30 minutes (LeSage et al., 1999; LeSage et al., 2004). Bicarbonate concentration in bile was determined by an ABL™ 520 Blood Gas System (Radiometer Medical A/S, Copenhagen, Denmark).

miR-141 = experiment: miRNA microarray expression profiling in BDL rat liver; settings: reduced in BDL; after melatonin treatment in vivo
Source text: Background: microRNAs (miRNAs) are small non-coding RNAs that have been implicated in the pathology of cholestatic liver injuries. After bile duct ligation (BDL), there is enhanced biliary proliferation and intrahepatic bile duct mass (IBDM). The inventors have previously shown that: i) cholangiocytes produce melatonin and express Clock genes and that ii) melatonin inhibits in vitro and in vivo the growth of cholangiocytes and cholangiocarcinoma cell lines by modulation of the CLOCK genes. Thus, in certain aspects miRNA regulates the expression of CLOCK genes and subsequently alters the proliferation of cholangiocytes after BDL. Methods: miRNA expression in normal and BDL rat liver was evaluated using hybridization based microRNA microarray. Mouse cholangiocytes (NMCs) were used for the experiments in vitro. mRNA expression was quantitated by real-time PCR analysis and protein expression was detected by Western blot. Results: […] Bioinformatics and dual-luciferase reporter assays identified Clock and cryptochrome 1 (Cry1), a blue light-dependent regulator of the circadian feedback loop, as the direct targets of miR-141. […] Targeting of […] during cholestatic liver injuries provides an important therapeutic strategy in the regulation of cholangiocytes proliferation through the regulation of Clock and Cry 1 expression.

[5] = BDL rats vs. corresponding control rats

Question: For `COc1ccc2[nH]cc(CCNC(C)=O)c2c1` [melatonin], which Body weight ([1]; BDL rats) is on record?
Answer: 150.1 ± 7.9 gm

Question: What about the “Liver to body weight ratio” value ([1]; BDL rats) of the same compound?
Answer: 4.5 ± 0.1

Question: What about the Liver weight ([1]; BDL rats) of the same compound?
Answer: 6.7 ± 0.1 gm

Question: What about the Body weight ([1]; normal rats) of the same compound?
Answer: 206.6 ± 3.9 gm

Question: What about the concentration at 1 week ([2]; BDL rats) of the same compound?
Answer: 0.165 ± 0.0668 ng/mL

Question: What about the concentration at 1 week ([2]; normal rats) of the same compound?
Answer: 0.14 ± 0.0127 ng/mL

Question: What about the Cholangiocyte apoptosis (large cholangiocytes [3]; BDL rats) of the same compound?
Answer: enhanced

Question: What about the “Large BDM (bile duct mass)” value (large cholangiocytes [3]; [5]) of the same compound?
Answer: decreased

Question: What about the “Percentage of PCNA-positive large cholangiocytes” value (large cholangiocytes [3]; [5]) of the same compound?
Answer: decreased

Question: What about the “Effects on bile duct mass, PCNA-positive cholangiocytes and apoptosis” value (large cholangiocytes [3]; normal rats) of the same compound?
Answer: no effects

Question: And the “Effect of secretin on cAMP levels of large cholangiocytes” value (large cholangiocytes [4])?
Answer: did not enhance

Question: What about the “miR-141 expression in BDL rat liver” value (miR-141) of the same compound?
Answer: recovered
